# Source: ChEMBL document CHEMBL1128087, “Novel substituted indolocarbazoles as potent and selective inhibitors of protein kinase C” (Bioorg Med Chem Lett, 1995)
# Target: cAMP-dependent protein kinase (PKA) (Homo sapiens) (UniProt P22694+P17612+P22612)
# Assay: In vitro inhibitory activity against Protein Kinase A at a concentration of 10 uM
# Format: protein assay
row,Compound,inhibition [%]
1,COC(=O)c1cc(C(=O)c2cc(NC(=O)CCn3c4ccccc4c4c5c(c6c7ccccc7[nH]c6c43)C(=O)NC5)cn2C)cn1C,43
2,O=C(CCn1c2ccccc2c2c3c(c4c5ccccc5[nH]c4c21)C(=O)NC3)NCC1CCOC1 (stereo not drawn),41
3,O=C(CCn1c2ccccc2c2c3c(c4c5ccccc5[nH]c4c21)C(=O)NC3)NCCN1CCCCC1,42
4,COC(=O)c1cc(NC(=O)CCn2c3ccccc3c3c4c(c5c6ccccc6[nH]c5c32)C(=O)NC4)cn1C,40
5,CN(C)CCCNC(=O)CCn1c2ccccc2c2c3c(c4c5ccccc5[nH]c4c21)C(=O)NC3,41
6,O=C(CCn1c2ccccc2c2c3c(c4c5ccccc5[nH]c4c21)C(=O)NC3)NCCN1CCOCC1,49
7,CN1CCCC1CCNC(=O)CCn1c2ccccc2c2c3c(c4c5ccccc5[nH]c4c21)C(=O)NC3 (stereo not drawn),25
8,COC(=O)c1cc(C(=O)c2cc(C(=O)c3cc(NC(=O)CCn4c5ccccc5c5c6c(c7c8ccccc8[nH]c7c54)C(=O)NC6)cn3C)cn2C)cn1C,40
